Results reported in BigSolDB 2.1.

CC(C)(C)OC(=O)N[C@@H](CCCN=C(N)N[N+](=O)[O-])C(=O)O
solubility (mole fraction)
Conditions | 283.15 K | 288.15 K | 293.15 K | 298.15 K | 303.15 K | 308.15 K | 313.15 K | 318.15 K | 323.15 K
in DMF | 0.164 | 0.185 | 0.211 | 0.246 | 0.29 | 0.346 | 0.415 | 0.505 | 0.62
in acetonitrile | 0.0012 | 0.00144 | 0.00168 | 0.00193 | 0.00222 | 0.00262 | 0.00324 | 0.00392 | 0.00491
in ethanol | 0.015 | 0.0188 | 0.0234 | 0.0282 | 0.0327 | 0.0391 | 0.0469 | 0.0563 | 0.0666
in ethyl acetate | 0.000705 | 0.000846 | 0.000955 | 0.00104 | 0.00114 | 0.0013 | 0.00147 | 0.00161 | 0.00187
in isobutanol | 0.00231 | 0.00296 | 0.00394 | 0.00499 | 0.00618 | 0.00799 | 0.00954 | 0.0112 | 0.0143
in isopropanol | 0.00489 | 0.0067 | 0.00844 | 0.0102 | 0.0127 | 0.0152 | 0.0184 | 0.0224 | 0.0267
in methanol | 0.042 | 0.0507 | 0.0601 | 0.0692 | 0.0752 | 0.0824 | 0.0908 | 0.0976 | 0.111
in n-butanol | 0.00377 | 0.00498 | 0.00583 | 0.00707 | 0.00842 | 0.00996 | 0.0121 | 0.0142 | 0.0172
in n-pentanol | 0.00254 | 0.00351 | 0.0042 | 0.00489 | 0.00595 | 0.00735 | 0.00886 | 0.0106 | 0.013
in n-propanol | 0.00543 | 0.00744 | 0.00919 | 0.0114 | 0.0132 | 0.0161 | 0.0195 | 0.0236 | 0.0285
in sec-butanol | 0.00398 | 0.00546 | 0.00729 | 0.00896 | 0.0113 | 0.0138 | 0.0162 | 0.0192 | 0.0222
in water | 0.000283 | 0.000334 | 0.000356 | 0.000404 | 0.000471 | 0.000522 | 0.000643 | 0.000799 | 0.000986
